Measured values from US20260317272A1, “USE OF STROBILURIN TYPE COMPOUNDS FOR COMBATING PHYTOPATHOGENIC FUNGI CONTAINING AN AMINO ACID SUBSTITION F129L IN THE MITOCHONDRIAL CYTOCHROME B PROTEIN CONFERRING RESISTANCE TO QO INHIBITORS XVI” (priority 2023, published 2026).

Tests used:
Phakopsora pachyrhizi [1] = experiment: Use Example 2: curative control of soybean rust on soybeans (PHAKPA K2); format: in vivo; details: 16 ppm, F129L strain, up to 14 days, untreated 90
Description: (§1) The compound was dissolved in a mixture of acetone and/or dimethylsulfoxide and the wetting agent/emulsifier Wettol, which is based on ethoxylated alkylphenoles, in a ratio (volume) solvent-emulsifier of 99 to 1 to give a total volume of 5 ml. Subsequently, water was added to total volume of 100 ml. This stock solution was then diluted with the described solvent-emulsifier-water mixture to the final concentration given in the tables below.
Use Example 2. Curative Control of Soybean Rust on Soybeans Caused by Phakopsora pachyrhizi (PHAKPA K2)
Leaves of potted soybean seedlings were inoculated with spores of Phakopsora pachyrhizi. The strain used contains the amino acid substitution F129L in the mitochondrial cytochrome b protein conferring resistance to Qo inhibitors. To ensure the success of the artificial inoculation, the plants were transferred to a humid chamber with a relative humidity of about 95% and 20 to 24° C. for 24 h. The next day the plants were cultivated for 1 day in a greenhouse chamber at 23-27° C. and a relative humidity between 60 and 80%. Then the plants were sprayed to run-off with the previously described spray solution, containing the concentration of active ingredient or their mixture as described below. The plants were allowed to air-dry. Then the trial plants were cultivated up to 14 days in a greenhouse chamber at 23-27° C. and a relative humidity between 60 and 80%. The extent of fungal attack on the leaves was visually assessed as % diseased leaf area.

Pyrenophora teres = experiment: Use Example 12: control of net blotch on barley (PYRNTE P4); format: in vivo, Pyrenophora (syn. Drechslera) teres; details: F129L strain, inoculated seven days later, 16 ppm, untreated 80%
Description: as §1
Use Example 12. Control of Net Blotch on Barley Caused by Pyrenophora teres (PYRNTE P4)
The first fully developed leaves of potted barley plants were sprayed to run-off previously described spray solution, containing the concentration of active ingredient or their mixture mentioned in the table below. Seven days later the treated plants were inoculated with an aqueous spore suspension of Pyrenophora (syn. Drechslera) teres. The strain used contains the amino acid substitution F129L in the mitochondrial cytochrome b protein conferring resistance to Qo inhibitors. After up to 19 days of cultivation at 20-24° C. and a relative humidity close to 70%, the extent of fungal attack on the leaves was visually assessed as % diseased leaf area.

Alternaria solani = experiment: Use Example 1: preventative fungicidal control of early blight on tomatoes (ALTESO P1); format: in vivo; details: 63 ppm, tomato, treated 1 day before inoculation, F129L strain, assessed after 5 days, untreated 85
Description: as §1
Use Example 1. Preventative Fungicidal Control of Early Blight on Tomatoes (Alternaria solani) (ALTESO P1)
Young seedlings of tomato plants were grown in pots. These plants were sprayed to run-off with previously described spray solution, containing the concentration of active ingredient or mixture mentioned in the table below. The next day the treated plants were inoculated with an aqueous suspension of Alternaria solani. The strain used contains the amino acid substitution F129L in the mitochondrial cytochrome b protein conferring resistance to Qo inhibitors. Then the trial plants were immediately transferred to a humid chamber. After 5 days at 18 to 20° C. and a saturated relative humidity, the extent of fungal attack on the leaves was visually assessed as % diseased leaf area.

Phakopsora pachyrhizi [2] = experiment: Use Example 4: protective control of soybean rust on soybeans (PHAKPA P6); format: in vivo; details: 16 ppm, six days before inoculation, F129L strain, up to 14 days, untreated 90
Description: as §1
Use Example 4. Protective Control of Soybean Rust on Soybeans Caused by Phakopsora pachyrhizi (PHAKPA P6)
Leaves of potted soybean seedlings were sprayed to run-off with the previously described spray solution, containing the concentration of active ingredient as described below. The plants were allowed to air-dry. The trial plants were cultivated for six days in a greenhouse chamber at 23-27° C. and a relative humidity between 60 and 80%. Then the plants were inoculated with spores of Phakopsora pachyrhizi. The strain used contains the amino acid substitution F129L in the mitochondrial cytochrome b protein conferring resistance to Qo inhibitors. To ensure the success the artificial inoculation, the plants were transferred to a humid chamber with a relative humidity of about 95% and 23 to 27° C. for 24 hr. The trial plants were cultivated for up to 14 days in a greenhouse chamber at 23 to 27° C. and a relative humidity between 60 and 80%. The extent of fungal attack on the leaves was visually assessed as % diseased leaf area, the disease level of untreated controls was usually higher than 85%.

Puccinia striiformis [3] = experiment: Use Example 9: curative control of wheat stripe rust on wheat (PUCCST K4); format: in vivo; details: 16 ppm, untreated 90%
Description: as §1
Use Example 9. Curative Control of Wheat Stripe Rust on Wheat Caused by Puccinia striiformis (PUCCST K4)
The first two developed leaves of potted wheat seedling were inoculated with spores of Puccinia striiformis. To ensure the success of the artificial inoculation, the plants were transferred to a chamber without light and a temperature of 5° C. for 24 h. Then the trial plants were cultivated for 3 days in a greenhouse chamber at 16° C. and a relative humidity of minimum 75%. The plants were sprayed to run-off with the previously described spray solution, containing the concentration of active ingredient or their mixture as described below. The plants were allowed to air-dry. Then the trial plants were cultivated for up to 12 days in a greenhouse chamber at 16° C. and a relative humidity of minimum 75%. The extent of fungal attack on the leaves was visually assessed as % diseased leaf area.

Puccinia striiformis [4] = experiment: Use Example 10: preventative control of wheat stripe rust on wheat (PUCCST P7); format: in vivo; details: 16 ppm, untreated 90%
Description: as §1
Use Example 10. Preventative Control of Wheat Stripe Rust on Wheat Caused by Puccinia striiformis (PUCCST P7)
The first two developed leaves of potted wheat seedling were sprayed to run-off with previously described spray solution, containing the concentration of active ingredient or their mixture as described below. Seven days later the plants were inoculated with spores of Puccinia striiformis. To ensure the success of the artificial inoculation, the plants were transferred to a chamber without light and a temperature of 5° C. for 24 h. Then the trial plants were cultivated for up to 14 days in a greenhouse chamber at 16° C. and a relative humidity of minimum 75%. The extent of fungal attack on the leaves was visually assessed as % diseased leaf area.

Puccinia triticina = experiment: Use Example 7: preventative control of brown rust on wheat (PUCCRT P10); format: in vivo, Puccinia triticina (syn. P. recondita); details: 16 ppm, ten days before inoculation, 6 days, untreated 80
Description: as §1
Use Example 7. Preventative Control of Brown Rust on Wheat Caused by Puccinia triticina (Syn. P. recondita) (PUCCRT P10)
The first two developed leaves of potted wheat seedling were sprayed to run-off with previously described spray solution, containing the concentration of active ingredient or their mixture as described below. Ten days later the plants were inoculated with spores of Puccinia triticina. To ensure the success of the artificial inoculation, the plants were transferred to a humid chamber without light and a relative humidity of 95 to 99% and 20 to 24° C. for 24 h. Then the trial plants were cultivated for 6 days in a greenhouse chamber at 20-24° C. and a relative humidity between 65 and 70%. The extent of fungal attack on the leaves was visually assessed as % diseased leaf area.

Row | Structure (SMILES) | Diseased leaf area (%) (Phakopsora pachyrhizi [1]) | Diseased leaf area (%) (Pyrenophora teres) | Diseased leaf area (%) (Alternaria solani) | Diseased leaf area (%) (Phakopsora pachyrhizi [2]) | Diseased leaf area (%) (Puccinia striiformis [3]) | Diseased leaf area (%) (Puccinia striiformis [4]) | Diseased leaf area (%) (Puccinia triticina)
1 | CNC(=O)/C(=N/OC)c1cccc(C)c1CO/N=C(\COC)c1c(F)cc(F)cc1F [Compound 1, (2E)-2-methoxyimino-2-[2-[[(Z)-[2-methoxy-1-(2,4,6-trifluorophenyl)ethylidene]amino]oxymethyl]-3-methyl-phenyl]-N-methyl-acetamide] | 0% | 10% | 11% | 0% | 0% | 13% | –
2 | COC/C(=N\OCc1c(C)cccc1/C(=N\OC)C(=O)OC)c1c(F)cc(F)cc1F [Compound 2, methyl (2E)-2-methoxyimino-2-[2-[[(Z)-[2-methoxy-1-(2,4,6-trifluorophenyl)ethylidene]amino]oxymethyl]-3-methyl-phenyl]acetate] | 2% | 13% | 13% | 7% | – | 11% | –
3 | CO/C=C(/C(=O)OC)c1cccc(C)c1CO/N=C(\COC)c1ccc(F)cc1Cl [Compound 3] | – | – | 5% | 4% | 7% | 0% | –
4 | CO/C=C(/C(=O)OC)c1cccc(C)c1CO/N=C(\COC)c1c(F)cc(F)cc1F [Compound 4, methyl (E)-3-methoxy-2-[2-[[(Z)-[2-methoxy-1-(2,4,6-trifluorophenyl)ethylidene]amino]oxymethyl]-3-methyl-phenyl]prop-2-enoate] | 5% | 4% | 5% | 0% | 15% | 0% | 12%
5 | CNC(=O)/C(=N/OC)c1cccc(C)c1CO/N=C(\COC)c1ccc(F)c(F)c1 [Compound 5, (2E)-2-[2-[[(Z)-[1-(3,4-difluorophenyl)-2-methoxy-ethylidene]amino]oxymethyl]-3-methylphenyl]-2-methoxyimino-N-methyl-acetamide] | 6% | 4% | 3% | 0% | 1% | 7% | 12%
6 | CO/C=C(/C(=O)OC)c1cccc(C)c1CO/N=C(\COC)c1ccc(Cl)cc1Cl [Compound 6, methyl (E)-2-[2-[[(Z)-[1-(2,4-dichlorophenyl)-2-methoxy-ethylidene]amino]oxymethyl]-3-methyl-phenyl]-3-methoxy-prop-2-enoate] | – | – | – | 9% | – | 0% | 5%
7 | CNC(=O)/C(=N/OC)c1cccc(C)c1CO/N=C(\COC)c1c(F)cc(OC)cc1F [Compound 7, (2E)-2-[2-[[(Z)-[1-(2,6-difluoro-4-methoxy-phenyl)-2-methoxy-ethylidene]amino]oxymethyl]-3-methyl-phenyl]-2-methoxyimino-N-methyl-acetamide] | 4% | 6% | – | 1% | 0% | 0% | 4%
